Assay results from article PMC5133935, “Hydrostatin-TL1, an Anti-Inflammatory Active Peptide from the Venom Gland of Hydrophis cyanocinctus in the South China Sea” (International Journal of Molecular Sciences, 2016).
Entries after “also recorded” stand apart in the source; their conditions may differ. No end group written: not given here.

What was measured:
[1] = test system: DSS-induced colitis in BALB/c mice; experiment: DSS-induced acute colitis (symptoms, DAI, body weight, spleen, colon length); format: in vivo, mouse
From the text: The H. cyanocinctus specimens were captured during September 2005 in the South China Sea near Guangdong Province, People’s Republic of China. After collection, the snakes were killed, and the venom glands were isolated and immediately frozen in liquid nitrogen until use. HEK-293 human embryonic kidney and L929 mouse fibroblast cell lines were obtained from ATCC and cultured in Dulbecco’s modified Eagle’s medium (DMEM, Sigma-Aldrich, St. Louis, MO, USA) containing 10% (v/v) heat-inactivated fetal bovine serum (FBS, Gibco, BRL, Grand Island, NY, USA) at 37 °C in an atmosphere of 5% CO2. The BLT5403 E. coli strain (used as the phage host strain) was from Novagen (Merck) and was cultured at 37 °C for propagation. The specific pathogen-free (SPF) male BALB/c and C57BL/6 mice (both 6–8 weeks old), weighing 20 ± 2 g were purchased from Shanghai SLAC Laboratory Animal Co., Ltd. (Shanghai, China). The mice were housed in animal facilities with 50% humidity under a 12-h light-dark cycle, fed a standard pellet diet, and provided with tap water ad libitum. The animal experimental protocols in this research, including venom gland isolation and the mouse study, were approved by the Animal Care and Use Committee of the Second Military Medical University.
To induce colitis, 6–8 week old male BALB/c mice were administered 2.5% DSS solution in their drinking water for 7–8 consecutive days, ad libitum. Importantly, 30–40 kDa DSS was used to establish the animal model in this study because it is known to induce more severe colitis than 5 and 500 kDa DSS [37]. The mice were concomitantly administered H-TL1 (0.5 or 1 mg/kg) once daily for 7–8 consecutive days by intraperitoneal injection. Establishment of the DSS-induced colitis was evidenced by an increase in DAI, with associated weight loss, loose stool consistency, and presence of blood in the feces. DAI was monitored during the entire experiment and was assessed according to the method described in Table 1.

TNF-α/TNFR1 [2] = experiment: Competitive ELISA, inhibition of TNF-α binding to TNFR1; set-up: species or system human; conditions: hrTNF-α 20 ng/mL, 1 h, 37 °C, n = 3
From the text: We investigated whether H-TL1 has an inhibitory effect on the binding of TNF-α to TNFRs by using ELISA. In this assay, a fixed amount of TNF-α was mixed with different concentrations of H-TL1 and applied to the TNFR-coated ELISA plates. […] SPR analysis was used to further confirm the inhibitory effects of H-TL1 on the binding of TNF-α to TNFR1. As expected, TNF-α was strongly bound with the chip-immobilized TNFR1.
(§1) The T7Select1-2b display vector, T7 select primers, blocking reagent, and elution buffer were purchased from Novagen (Merck, Kenilworth, NJ, USA). […] DSS (36–50 kDa) was bought from MP Biomedicals (Solon, OH, USA). MTT, actinomycin D, and LPS were purchased from Sigma-Aldrich (St. Louis, MO, USA).
ELISA plates were coated with sTNFR1 (100 ng/well in 100 μL of 100 mM sodium carbonate, pH 9.6) for 20 h at 4 °C, followed by blocking with phosphate buffered saline (PBS) containing 0.2% Tween-20 (PBST) and 1% BSA for 1 h at 37 °C. Different concentrations of H-TL1 (0–1 μM) were mixed with hrTNF-α (20 ng/mL) in PBS containing 1% BSA, and 100 μL/well was placed in the ELISA plates and incubated for 1 h at 37 °C. After washing with PBST, an HRP-labeled monoclonal antibody against TNF-α was added, followed by incubation at 37 °C for 1 h. The plates were then washed, incubated with o-phenylenediamine, and the absorbance was subsequently measured at 450 nm.

TNF-α/TNFR1 [3] = experiment: SPR analysis, TNF-α binding to chip-immobilized TNFR1; set-up: species or system human; conditions: H-TL1 0.5 and 1 μM; hrTNF-α 100 nM; sTNFR1 on CM5 chip, BIAcore T200; 360 s association, 200 s dissociation
Procedure: as §1
sTNFR1 (100 μg/mL) was covalently immobilized onto a CM5 sensor chip by the BIAcore T200 system (Biacore, GE Healthcare) following manufacturer’s instructions. To determine whether H-TL1 inhibits the binding of TNF-α to TNFR1, hrTNF-α was diluted in running buffer at 100 nM with or without different concentrations of H-TL1 (0.1, 0.5, and 1 μM) and subsequently passed over the sTNFR1-immobilized chip for 360 s, followed by dissociation for 200 s. The response unit indicates binding ability.

mammalian cells = experiment: Cytotoxicity toward mammalian cells (general statement); format: cell-based; conditions: conclusion statement
[4] = test system: TNF-α expression in lung tissue of LPS-treated mice; experiment: Immunohistochemistry, TNF-α in lung tissue; format: in vivo, mouse; conditions: IHC 400×, n = 8, *** p < 0.001 vs. LPS group
Procedure: The LPS-induced acute shock model was established in male C57BL/6 mice (6–8 weeks old) that were randomly allocated to five groups. LPS was administered (15 mg/kg body weight) to induce acute shock. The LPS- or normal saline-treated mice were injected with 100 μL of normal saline with or without LPS intraperitoneally, while the H-TL1 and LPS-treated mice were each administered H-TL1 at three doses of 20, 40, and 80 μg/kg 1, 3, and 5 h after the LPS injection (Figure 5A). The mice were observed every 4 h to evaluate mortality.
An additional set of paraffin sections was used for immunohistochemical analysis of TNF-α expression. Sections (5-μm thick) were mounted on slides, cleaned, hydrated, blocked with endogenous peroxidase (Dako, S2001), washed with PBS, and then treated with citrate buffer ([…], pH 6.0) for target antigen retrieval. The sections were treated with a buffered blocking solution (3% BSA in PBS for 15 min), incubated for 1 h at room temperature with a primary polyclonal antibody specific to mouse TNF-α, washed with PBS, and incubated with a secondary HRP-labeled antibody (Abcam) (1:500 in PBS, v/v) at room temperature for 1 h. Then, the sections were washed again with Tris-HCl 0.05 M, pH 7.6, and subsequently incubated with 3,3′-diaminobenzidine (DAB) solution in the dark at room temperature for 10 min. […]

## ATSKPSLKC-OH [H-TL1]
[1]; DSS + H-TL1 1 mg/kg, n = 8
  recovery / general health: recovered, appearing similar in health to that of the normal group
[1]; H-TL1 0.5 mg/kg, n = 8, * p < 0.05 vs. DSS group
  reduction in colon length: significantly attenuated the reduction in colon length
[1]; H-TL1 1 mg/kg i.p. once daily, Days 6–8, 2.5% DSS, n = 8, * p < 0.05, ** p < 0.01 vs. DSS group
  disease activity index (DAI): significantly decreased
[1]; H-TL1 1 mg/kg i.p. once daily, by Day 8, DSS + vehicle lost an average of 4.3 g more than normal group, n = 8
  loss of body weight: 1.6 g
[1]; H-TL1 1 mg/kg i.p. once daily, vs. vehicle-treated mice
  symptoms associated with DSS-induced colitis: significantly improved
[1]; H-TL1 1 mg/kg, n = 8, * p < 0.05 vs. DSS alone
  spleen/body weight ratio: significantly lower
[1]; H-TL1 1 mg/kg, n = 8, *** p < 0.001 vs. DSS group
  reduction in colon length: significantly attenuated the reduction in colon length
TNF-α/TNFR1 [2]; H-TL1 1 μM, plate coated with sTNFR1 100 ng/well, PBS + 1% BSA, absorbance 450 nm
  inhibition of the binding of TNF-α with TNFR1: ~60%
TNF-α/TNFR1 [2]; H-TL1 0.1–1000 nM
  inhibition of TNF-α/TNFR1 binding, concentration dependence: obviously inhibits the binding of TNF-α with TNFR1; also recorded: inhibited the binding of TNF-α with TNFR1 in a concentration-dependent manner
TNF-α/TNFR1 [3]
  attenuation of SPR response of TNF-α to TNFR1: inhibits the association of TNF-α with sensor chip-immobilized TNFR1; also recorded: the elicited response was markedly attenuated
Mammalian cells
  cytotoxicity toward mammalian cells: little cytotoxicity toward mammalian cells
[4]
  TNF-α expression in lung tissue: attenuated this effect
